Measured values from PMC5400565, “Real-time near-infrared fluorescence imaging using cRGD-ZW800-1 for intraoperative visualization of multiple cancer types” (Oncotarget, 2017).

Experiments:
[1] = target: T1, Adrenergic α2A (Homo sapiens, UniProt P08913); assay: Off-target screening (Eurofins Cerep), α2A; assay type: binding
T1 construct: Eurofins Cerep SA (contract screening)

[2] = target: T2, Muscarinic M1 (Homo sapiens, UniProt P11229); assay: biochemical; assay type: binding
T2 construct: Eurofins Cerep SA (contract screening)

[3] = target: T3, Norepinephrine transporter (Homo sapiens, UniProt P23975); assay: Off-target screening (Eurofins Cerep), norepinephrine transporter; assay type: binding
T3 construct: Eurofins Cerep SA (contract screen)

[4] = tested on: BxPC-3 pancreatic tumors; assay: NIR fluorescence imaging, BxPC-3 pancreatic tumors; assay type: in vivo, mice; conditions: all three dose groups (1.0, 10, 30 nmol), FLARE and Pearl, skin as background
Method: To induce subcutaneous tumors, colorectal cancer cells (HT-29) were injected at 4 sites on the back (500,000 cells per spot). Subsequently, these colorectal tumor cells were transplanted on the colon of other mice, as described by Tseng et al.. Approximately 500,000 pancreatic tumor cells (BxPC-3) were injected into the pancreas, as previously described by Kim et al.. Approximately 40,000 oral tumor cells (OSC-19) were injected in the tongue, as previously described by van Driel et al.. Approximately 500,000 breast tumor cells (MCF-7) were injected in both sides of the mammary fat pad to induce breast cancer tumors.
All animals were imaged using a Pearl® imager (LI-COR, Lincoln, NE) and an original FLARE® prototype. Animals with HT-29 tumors were imaged at 4 and 24 h post injection; animals with BxPC-3 and OSC-19 tumors at 4 h only. Animals with MCF-7 tumors were imaged at 0.5, 1, 2, 4, 6, 8, 24 and 48 h post injection. […] TBRs were calculated by dividing the tumor signal by the background signal. […]
Mice were administered with 0.25 (HT-29 model only), 1.0, 10, or 30 nmol cRGD-ZW800-1 to evaluate tumor signals, biodistribution, and to calculate TBRs (n = 3 per dose group). At 4 h (BxPC-3 model) and 24 h (HT-29 model) after injection, mice were fully dissected and fluorescence intensity of their organs was measured.

[5] = target: Potassium Channel hERG (Homo sapiens, UniProt Q12809)
[6] = tested on: tumors; assay: Estimated concentration inside tumors in humans; conditions: after administering 63 μg/kg, assuming tumor uptake comparable to RGD-PET tracer
[7] = 10 μM cRGD-ZW800-1, format H, An, performed twice, read-out: % Inhibition of Control Specific Binding
[8] = 10 μM, mean of 2, read-out: % of Control Specific Binding Mean

Sequence of Potassium Channel hERG (Q12809 whole entry): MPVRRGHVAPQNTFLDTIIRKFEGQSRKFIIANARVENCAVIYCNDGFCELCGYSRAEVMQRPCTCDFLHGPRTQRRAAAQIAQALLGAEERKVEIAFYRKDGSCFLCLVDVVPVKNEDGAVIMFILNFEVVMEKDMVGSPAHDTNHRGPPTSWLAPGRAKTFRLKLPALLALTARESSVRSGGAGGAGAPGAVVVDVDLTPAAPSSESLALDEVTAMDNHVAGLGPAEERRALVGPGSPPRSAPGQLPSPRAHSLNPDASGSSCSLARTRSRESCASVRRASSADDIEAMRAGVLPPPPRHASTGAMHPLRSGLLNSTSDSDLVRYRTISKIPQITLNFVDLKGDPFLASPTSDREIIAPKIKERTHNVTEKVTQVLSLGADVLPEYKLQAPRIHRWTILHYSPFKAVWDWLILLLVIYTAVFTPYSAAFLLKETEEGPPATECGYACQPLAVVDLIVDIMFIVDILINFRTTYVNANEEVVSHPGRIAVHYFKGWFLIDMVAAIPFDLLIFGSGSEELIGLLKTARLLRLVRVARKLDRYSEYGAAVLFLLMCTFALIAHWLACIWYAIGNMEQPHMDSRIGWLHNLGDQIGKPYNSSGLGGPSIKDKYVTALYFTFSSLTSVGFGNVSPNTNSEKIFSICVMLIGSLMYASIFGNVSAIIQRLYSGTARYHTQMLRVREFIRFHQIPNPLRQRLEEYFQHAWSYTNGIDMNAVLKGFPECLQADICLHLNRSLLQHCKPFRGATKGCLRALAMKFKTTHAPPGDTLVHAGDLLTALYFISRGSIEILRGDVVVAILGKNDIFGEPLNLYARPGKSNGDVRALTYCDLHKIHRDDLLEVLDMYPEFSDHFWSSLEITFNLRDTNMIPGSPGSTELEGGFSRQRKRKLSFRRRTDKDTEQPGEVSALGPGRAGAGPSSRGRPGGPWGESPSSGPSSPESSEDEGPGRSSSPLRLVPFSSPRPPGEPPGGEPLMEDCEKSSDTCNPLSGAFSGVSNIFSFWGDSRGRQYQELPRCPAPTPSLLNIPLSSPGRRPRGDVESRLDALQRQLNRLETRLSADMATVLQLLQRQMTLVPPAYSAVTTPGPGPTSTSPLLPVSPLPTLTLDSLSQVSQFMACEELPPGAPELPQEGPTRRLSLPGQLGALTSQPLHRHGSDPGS
T3 sequence (P23975 whole entry): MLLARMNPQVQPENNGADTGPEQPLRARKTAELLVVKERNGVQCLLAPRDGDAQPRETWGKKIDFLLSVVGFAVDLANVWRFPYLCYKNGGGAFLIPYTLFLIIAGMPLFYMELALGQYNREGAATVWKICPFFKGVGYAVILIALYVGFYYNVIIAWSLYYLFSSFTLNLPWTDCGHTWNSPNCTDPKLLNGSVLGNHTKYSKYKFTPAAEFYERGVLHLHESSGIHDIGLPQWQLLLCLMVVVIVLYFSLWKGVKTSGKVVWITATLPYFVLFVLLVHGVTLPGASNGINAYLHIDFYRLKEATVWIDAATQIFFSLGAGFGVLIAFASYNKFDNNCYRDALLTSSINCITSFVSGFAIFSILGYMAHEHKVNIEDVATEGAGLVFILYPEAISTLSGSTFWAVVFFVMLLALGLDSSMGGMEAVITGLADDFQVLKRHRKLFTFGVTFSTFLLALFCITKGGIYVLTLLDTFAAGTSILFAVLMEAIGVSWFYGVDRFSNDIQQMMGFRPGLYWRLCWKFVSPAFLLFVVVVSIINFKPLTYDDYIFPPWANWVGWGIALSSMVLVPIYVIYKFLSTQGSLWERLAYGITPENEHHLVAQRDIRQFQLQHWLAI
T2 sequence (P11229 whole entry): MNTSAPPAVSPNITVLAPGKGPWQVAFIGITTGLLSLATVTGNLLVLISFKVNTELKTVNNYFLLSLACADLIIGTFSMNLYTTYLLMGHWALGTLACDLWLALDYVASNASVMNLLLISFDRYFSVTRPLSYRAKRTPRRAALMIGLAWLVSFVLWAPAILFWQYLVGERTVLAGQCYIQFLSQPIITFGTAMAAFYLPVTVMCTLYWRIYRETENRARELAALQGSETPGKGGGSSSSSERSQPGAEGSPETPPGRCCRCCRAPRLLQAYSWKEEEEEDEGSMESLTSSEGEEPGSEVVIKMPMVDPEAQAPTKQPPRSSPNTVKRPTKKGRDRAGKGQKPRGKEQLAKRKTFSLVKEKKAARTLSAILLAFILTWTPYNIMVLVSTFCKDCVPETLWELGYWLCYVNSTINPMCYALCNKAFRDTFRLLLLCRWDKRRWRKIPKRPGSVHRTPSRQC
T1 sequence (P08913 whole entry): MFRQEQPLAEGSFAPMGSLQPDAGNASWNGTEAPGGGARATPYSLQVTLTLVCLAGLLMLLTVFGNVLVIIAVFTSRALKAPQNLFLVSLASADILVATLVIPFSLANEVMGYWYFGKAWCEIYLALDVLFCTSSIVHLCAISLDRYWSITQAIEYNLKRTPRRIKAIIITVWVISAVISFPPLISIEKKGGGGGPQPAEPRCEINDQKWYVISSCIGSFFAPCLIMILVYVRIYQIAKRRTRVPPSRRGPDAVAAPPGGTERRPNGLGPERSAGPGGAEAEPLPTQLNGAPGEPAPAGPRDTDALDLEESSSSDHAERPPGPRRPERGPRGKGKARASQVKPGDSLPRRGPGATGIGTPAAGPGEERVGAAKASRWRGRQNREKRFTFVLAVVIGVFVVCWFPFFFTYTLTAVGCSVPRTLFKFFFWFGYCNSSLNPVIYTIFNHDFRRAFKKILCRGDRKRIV

Work on `CC1(C)C(/C=C/C2=C(Oc3ccc(CCC(=O)NCCCC[C@@H]4NC(=O)[C@@H](Cc5ccc(O)cc5)NC(=O)[C@H](CC(=O)O)NC(=O)CNC(=O)[C@H](CCCNC(=N)N)NC4=O)cc3)C(=C/C=C3/N(CCC[N+](C)(C)C)c4ccc(S(=O)(=O)O)cc4C3(C)C)/CCC2)=[N+](CCC[N+](C)(C)C)c2ccc(S(=O)(=O)O)cc21` [cRGD-ZW800-1] yielded an inhibition at 10 µM [1, 7] of -4%, a remaining activity at 10 µM [1, 8] of 104% and an inhibition at 10 µM ([2]; read-out: % Inhibition of Control Specific Binding) of 5%. It also gave a remaining activity at 10 µM ([2]; read-out: % of Control Specific Binding Mean) of 95.5%, an inhibition at 10 µM [3, 7] of 3% and a remaining activity at 10 µM [3, 8] of 97.4%. For the same compound, the “TBRs at 4 h post injection” value [4] was > 2, the “% Inhibition of Control Specific Binding” value [5] was -6% and the “% of Control Specific Binding 1st” value ([5]; 10 µM) was 106.4%. For the same compound, the “% of Control Specific Binding 2nd” value ([5]; 10 µM) was 104.8% and the concentration inside tumors [6] was “approximately 0.2 μM”.
